Measured values published in patent US8685992B2, “Histone deacetylase inhibitors based simultaneously on trisubstituted 1H-pyrroles and aromatic and heteroaromatic spacers” (Universidad del País Vasco, priority 2009, dated 2014).

Assays:
Calu-6 = assay: Cancer cell growth inhibition, Calu-6; type: cell-based, human; conditions: Calu-6, Lung Cancer, 72 h treatment
Description: (§1) Cell culture-based assays were used to evaluate the ability of compounds of the invention to inhibit cancer cell growth inhibition.
(§2) Cells were obtained from the American Type Culture Collection (ATCC). Cells were cultured at 37° C. with 5% CO2 in the appropriate growth medium (see table below), and harvested respectively during the logarithmic growth period and counted with hemocytometer. The cell viability was over 98% by trypan blue exclusion. Cell concentrations were adjusted between 5×10^4 and 2×10^5 cells/ml with respective medium.
(§3) Stock solutions of test compounds and positive drugs Doxorubicin (Zhejiang, Haizheng, China), Paclitaxel (Beijing, Xiehe, China), Vincristin (Shenzhen Wanle, China), 5-FU (Tianjin jinyaoanjisuan, China), Irinotecan (Jiangsu Hengrui, China) and Cisplatin Nanjing zhiyao, China) were prepared in dimethyl sulphoxide (DMSO) or PBS at 20 mM.
(§4) All treatments were performed in triplicate. 10 μl drug solution was added to each well and incubated for 72 hours. At the end of the incubation, 20 μl of the freshly prepared MTS/PMS mixture solution was added to each well and incubated for 4 hours at 37° C. in a humidified, 5% CO2 atmosphere. Absorbance was read at 490 nm using SpectraMAX Plus microplate spectrophotometer. […] In order to calculate IC50, a dose-responsive curve was fitted using nonlinear regression model with a sigmoidal dose response.

OVCAR3 = assay: Cancer cell growth inhibition, OVCAR3; type: cell-based, human; conditions: OVCAR3, Ovarian Cancer, 72 h treatment
Description: as §1, §2, §3, §4

786-O = assay: Cancer cell growth inhibition, 786-O; type: cell-based, human; conditions: Kindney Cancer, 72 h treatment
Description: as §1, §2, §3, §4

LNCaP = assay: Cancer cell growth inhibition, LNCaP; type: cell-based, human; conditions: Prostate Cancer, 72 h treatment
Description: as §1, §2, §3, §4

CNE2 = assay: Cancer cell growth inhibition, CNE2; type: cell-based, human; conditions: CNE2, Nasopharyngeal Cancer, 72 h treatment
Description: as §1, §2, §3, §4

SK-OV-3 = assay: Cancer cell growth inhibition, SK-OV-3; type: cell-based, human; conditions: SK-OV-3, Ovarian Cancer, 72 h treatment
Description: as §1, §2, §3, §4

DU145 = assay: Cancer cell growth inhibition, DU145; type: cell-based, human; conditions: DU145, Prostate Cancer, 72 h treatment
Description: as §1, §2, §3, §4

NCI-H460 = assay: Cancer cell growth inhibition, NCI-H460; type: cell-based, human; conditions: NCI-H460, Lung Cancer, 72 h treatment
Description: as §1, §2, §3, §4

KB = assay: Cancer cell growth inhibition, KB; type: cell-based, human; conditions: Oral Cancer, 72 h treatment
Description: as §1, §2, §3, §4

SK-MEL-5 = assay: Cancer cell growth inhibition, SK-MEL-5; type: cell-based, human; conditions: SK-MEL-5, Melanoma, 72 h treatment
Description: as §1, §2, §3, §4

PC-3 = assay: Cancer cell growth inhibition, PC-3; type: cell-based, human; conditions: PC-3, Prostate Cancer, 72 h treatment
Description: as §1, §2, §3, §4

K562 = assay: Cancer cell growth inhibition, K562; type: cell-based, human; conditions: K562, CML, 72 h treatment
Description: as §1
Cells were obtained from the American Type Culture Collection (ATCC). Cells were cultured at 37° C. with 5% CO2 in the appropriate growth medium (see table below), and harvested respectively during the logarithmic growth period and counted with hemocytometer. […] Cell concentrations were adjusted between 5×10^4 and 2×10^5 cells/ml with respective medium.
as §3, §4

MDA-MB-231 = assay: Cancer cell growth inhibition, MDA-MB-231; type: cell-based, human; conditions: MDA-MB-231, Breast Cancer, 72 h treatment
Description: as §1, §2, §3, §4

SW620 = assay: Cancer cell growth inhibition, SW620; type: cell-based, human; conditions: SW620, Colorectal Cancer, 72 h treatment
Description: as §1, §2, §3, §4

U87MG = assay: Cancer cell growth inhibition, U87MG; type: cell-based, human; conditions: Glioblastoma, 72 h treatment
Description: as §1, §2, §3, §4

SK-MES-1 = assay: Cancer cell growth inhibition, SK-MES-1; type: cell-based, human; conditions: SK-MES-1, Lung Cancer, 72 h treatment
Description: as §1, §2, §3, §4

DLD-1 = assay: Cancer cell growth inhibition, DLD-1; type: cell-based, human; conditions: DLD-1, Colorectal Cancer, 72 h treatment
Description: as §1, §2, §3, §4

PANC-1 = assay: Cancer cell growth inhibition, PANC-1; type: cell-based, human; conditions: PANC-1, Pancreatic Cancer, 72 h treatment
Description: as §1, §2, §3, §4

BGC823 = assay: Cancer cell growth inhibition, BGC823; type: cell-based, human; conditions: BGC823, Gastric Cancer, 72 h treatment
Description: as §1, §2, §3, §4

Bx-PC-3 = assay: Cancer cell growth inhibition, Bx-PC-3; type: cell-based, human; conditions: Bx-PC-3, Pancreatic Cancer, 72 h treatment
Description: as §1, §2, §3, §4

SW480 = assay: Cancer cell growth inhibition, SW480; type: cell-based, human; conditions: SW480, Colorectal Cancer, 72 h treatment
Description: as §1, §2, §3, §4

SK-BR-3 = assay: Cancer cell growth inhibition, SK-BR-3; type: cell-based, human; conditions: SK-BR-3, Breast Cancer, 72 h treatment
Description: as §1, §2, §3, §4

Hep3B = assay: Cancer cell growth inhibition, Hep3B; type: cell-based, human; conditions: Liver Cancer, 72 h treatment
Description: as §1, §2, §3, §4

NCI-N87 = assay: Cancer cell growth inhibition, NCI-N87; type: cell-based, human; conditions: NCI-N87, Gastric Cancer, 72 h treatment
Description: as §1, §2, §3, §4

MCF-7 = assay: Cancer cell growth inhibition, MCF-7; type: cell-based, human; conditions: MCF-7, Breast Cancer, 72 h treatment
Description: as §1, §2, §3, §4

LoVo = assay: Cancer cell growth inhibition, LoVo; type: cell-based, human; conditions: Colorectal Cancer, 72 h treatment
Description: as §1, §2, §3, §4

HT-29 = assay: Cancer cell growth inhibition, HT-29; type: cell-based, human; conditions: HT-29, Colorectal Cancer, 72 h treatment
Description: as §1, §2, §3, §4

MCG803 = assay: Cancer cell growth inhibition, MCG803; type: cell-based, human; conditions: MCG803, Gastric Cancer, 72 h treatment
Description: as §1, §2, §3, §4

A375 = assay: Cancer cell growth inhibition, A375; type: cell-based, human; conditions: A375, Melanoma, 72 h treatment
Description: as §1, §2, §3, §4

NCI-H226 = assay: Cancer cell growth inhibition, NCI-H226; type: cell-based, human; conditions: NCI-H226, Lung Cancer, 72 h treatment
Description: as §1, §2, §3, §4

A549 = assay: Cancer cell growth inhibition, A549; type: cell-based, human; conditions: A549, Lung Cancer, 72 h treatment
Description: as §1, §2, §3, §4

RPMI-8226 = assay: Cancer cell growth inhibition, RPMI-8226; type: cell-based, human; conditions: RPMI-8226, Orthotopic Multiple Myeloma, 72 h treatment
Description: as §1, §2, §3, §4

Human HDAC6 = Human HDAC6 (Homo sapiens (Human), UniProt Q9UBN7); assay: HDAC6 fluorogenic peptide deacetylation assay; type: biochemical; conditions: human HDAC6, 50 μM substrate, 30° C., 2 h; read-out: IC50 (nM) of enzyme activity HDAC6
Human HDAC11 = Human HDAC11 (Homo sapiens (Human), UniProt Q96DB2); assay: HDAC11 fluorogenic peptide deacetylation assay; type: biochemical; conditions: human HDAC11, 50 μM substrate, 30° C., 2 h; read-out: IC50 (nM) of enzyme activity HDAC11
Sequence of Human HDAC11 (Q96DB2 whole entry): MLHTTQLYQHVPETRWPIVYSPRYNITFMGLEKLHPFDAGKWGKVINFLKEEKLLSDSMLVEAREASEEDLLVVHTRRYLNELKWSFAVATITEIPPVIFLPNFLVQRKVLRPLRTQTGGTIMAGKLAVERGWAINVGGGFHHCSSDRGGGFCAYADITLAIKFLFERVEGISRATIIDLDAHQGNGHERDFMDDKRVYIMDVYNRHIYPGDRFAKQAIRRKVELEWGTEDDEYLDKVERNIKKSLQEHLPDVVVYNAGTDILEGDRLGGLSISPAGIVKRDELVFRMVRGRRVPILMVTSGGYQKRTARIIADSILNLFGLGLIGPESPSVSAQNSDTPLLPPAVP

Human HDAC4 = Human HDAC4 (Homo sapiens (Human), UniProt P56524); assay: HDAC4 fluorogenic peptide deacetylation assay; type: biochemical; conditions: human HDAC4, 50 μM substrate, 30° C., 2 h; read-out: IC50 (nM) of enzyme activity HDAC4
Sequence of Human HDAC4 (P56524 627-1084 limits assumed): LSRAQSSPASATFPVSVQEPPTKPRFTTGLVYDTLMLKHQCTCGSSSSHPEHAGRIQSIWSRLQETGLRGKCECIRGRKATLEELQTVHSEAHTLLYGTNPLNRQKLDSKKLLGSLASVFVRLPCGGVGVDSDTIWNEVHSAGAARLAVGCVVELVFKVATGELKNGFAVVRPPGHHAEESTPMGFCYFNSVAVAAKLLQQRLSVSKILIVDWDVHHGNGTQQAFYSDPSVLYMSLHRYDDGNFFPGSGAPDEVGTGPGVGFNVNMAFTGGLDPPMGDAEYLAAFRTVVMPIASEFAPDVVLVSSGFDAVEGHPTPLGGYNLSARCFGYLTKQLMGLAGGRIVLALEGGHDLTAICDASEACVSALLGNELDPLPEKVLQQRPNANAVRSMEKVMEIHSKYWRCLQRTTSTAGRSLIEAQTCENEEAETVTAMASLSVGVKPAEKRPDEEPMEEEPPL

Human HDAC5 = Human HDAC5 (Homo sapiens (Human), UniProt Q9UQL6); assay: HDAC5 fluorogenic peptide deacetylation assay; type: biochemical; conditions: human HDAC5, 50 μM substrate, 30° C., 2 h; read-out: IC50 (nM) of enzyme activity HDAC5
Sequence of Human HDAC5 (Q9UQL6 other isoform, or with tags, fused parts or gaps): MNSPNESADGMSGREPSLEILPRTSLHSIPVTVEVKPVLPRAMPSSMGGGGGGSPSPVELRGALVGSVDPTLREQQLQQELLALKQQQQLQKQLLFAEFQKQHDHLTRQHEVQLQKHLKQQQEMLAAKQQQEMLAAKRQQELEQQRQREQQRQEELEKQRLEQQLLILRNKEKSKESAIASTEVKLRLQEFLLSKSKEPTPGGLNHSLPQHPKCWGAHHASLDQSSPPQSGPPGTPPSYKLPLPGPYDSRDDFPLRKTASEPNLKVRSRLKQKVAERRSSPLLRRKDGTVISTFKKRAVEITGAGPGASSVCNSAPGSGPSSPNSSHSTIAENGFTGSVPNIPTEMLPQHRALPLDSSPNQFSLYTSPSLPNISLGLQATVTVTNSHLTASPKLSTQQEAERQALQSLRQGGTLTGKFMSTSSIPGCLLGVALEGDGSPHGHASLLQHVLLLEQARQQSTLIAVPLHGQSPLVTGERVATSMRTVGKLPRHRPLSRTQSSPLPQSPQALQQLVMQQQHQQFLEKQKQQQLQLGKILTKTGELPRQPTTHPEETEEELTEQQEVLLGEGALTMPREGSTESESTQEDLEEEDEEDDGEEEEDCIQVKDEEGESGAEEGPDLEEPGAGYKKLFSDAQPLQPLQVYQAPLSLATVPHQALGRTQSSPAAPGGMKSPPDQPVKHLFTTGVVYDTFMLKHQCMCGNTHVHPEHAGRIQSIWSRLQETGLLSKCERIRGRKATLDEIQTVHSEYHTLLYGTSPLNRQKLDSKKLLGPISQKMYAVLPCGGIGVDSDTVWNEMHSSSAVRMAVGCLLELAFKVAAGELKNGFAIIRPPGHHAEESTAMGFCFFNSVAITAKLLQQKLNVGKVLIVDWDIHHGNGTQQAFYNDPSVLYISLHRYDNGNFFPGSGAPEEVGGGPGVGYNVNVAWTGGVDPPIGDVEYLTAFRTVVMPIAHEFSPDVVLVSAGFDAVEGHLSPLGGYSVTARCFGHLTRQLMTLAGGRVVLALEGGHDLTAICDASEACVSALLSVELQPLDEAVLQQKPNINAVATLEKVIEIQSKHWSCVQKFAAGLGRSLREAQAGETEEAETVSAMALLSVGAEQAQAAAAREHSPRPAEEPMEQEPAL

Human HDAC2 = Human HDAC2 (Homo sapiens (Human), UniProt Q92769); assay: HDAC2 fluorogenic peptide deacetylation assay; type: biochemical; conditions: human HDAC2, 50 μM substrate, 30° C., 2 h; read-out: IC50 (nM) of enzyme activity HDAC2
Human HDAC7 = Human HDAC7 (Homo sapiens (Human), UniProt Q8WUI4); assay: HDAC7 fluorogenic peptide deacetylation assay; type: biochemical; conditions: human HDAC7, 50 μM substrate, 30° C., 2 h; read-out: IC50 (nM) of enzyme activity HDAC7
Sequence of Human HDAC7 (Q8WUI4 479-952 limits assumed): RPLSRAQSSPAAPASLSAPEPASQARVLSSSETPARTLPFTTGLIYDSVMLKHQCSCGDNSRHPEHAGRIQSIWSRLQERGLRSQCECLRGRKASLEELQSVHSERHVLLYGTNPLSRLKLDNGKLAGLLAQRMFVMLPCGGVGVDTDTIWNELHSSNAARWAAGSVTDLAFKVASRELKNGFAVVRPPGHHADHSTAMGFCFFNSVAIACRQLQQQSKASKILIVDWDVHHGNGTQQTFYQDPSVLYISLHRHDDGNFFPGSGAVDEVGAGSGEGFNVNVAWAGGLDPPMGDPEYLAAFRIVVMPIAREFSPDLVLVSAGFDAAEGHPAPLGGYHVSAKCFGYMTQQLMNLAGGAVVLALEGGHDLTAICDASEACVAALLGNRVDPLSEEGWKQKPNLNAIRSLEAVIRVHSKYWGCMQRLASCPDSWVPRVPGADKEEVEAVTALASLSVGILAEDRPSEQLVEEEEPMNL

Human HDAC10 = Human HDAC10 (Homo sapiens (Human), UniProt Q969S8); assay: HDAC10 fluorogenic peptide deacetylation assay; type: biochemical; conditions: human HDAC10, 50 μM substrate, 30° C., 2 h; read-out: IC50 (nM) of enzyme activity HDAC10
Sequence of Human HDAC10 (Q969S8 1-631): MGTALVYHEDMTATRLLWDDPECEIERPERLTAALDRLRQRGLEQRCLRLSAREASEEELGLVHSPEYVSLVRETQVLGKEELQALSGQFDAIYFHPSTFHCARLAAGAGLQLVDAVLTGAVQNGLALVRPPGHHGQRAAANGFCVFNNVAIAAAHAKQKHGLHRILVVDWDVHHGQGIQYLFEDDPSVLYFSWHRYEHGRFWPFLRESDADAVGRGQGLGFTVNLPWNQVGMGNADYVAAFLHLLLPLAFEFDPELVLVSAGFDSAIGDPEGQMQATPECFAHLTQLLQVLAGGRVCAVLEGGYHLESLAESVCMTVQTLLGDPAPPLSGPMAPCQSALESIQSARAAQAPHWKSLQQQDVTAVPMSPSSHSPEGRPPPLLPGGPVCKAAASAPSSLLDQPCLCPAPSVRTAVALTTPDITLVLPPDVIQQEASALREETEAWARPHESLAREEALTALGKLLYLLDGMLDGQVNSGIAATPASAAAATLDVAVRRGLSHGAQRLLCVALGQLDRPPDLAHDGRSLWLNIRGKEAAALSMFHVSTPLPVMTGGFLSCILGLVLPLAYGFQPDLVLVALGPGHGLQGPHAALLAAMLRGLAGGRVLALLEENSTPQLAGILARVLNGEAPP

[1] = tested on: Nuclear Extract from HeLa Cells; assay: HeLa Nuclear Extract HDAC assay; type: biochemical, human; conditions: 50 μM substrate, 30° C., 2 h, read-out: IC50 (nM) of enzyme activity HeLa
Human HDAC1 = Human HDAC1 (Homo sapiens (Human), UniProt Q13547); assay: HDAC1 fluorogenic peptide deacetylation assay; type: biochemical; conditions: human HDAC1, 50 μM substrate, 30° C., 2 h; read-out: IC50 (nM) of enzyme activity HDAC1
Sequence of Human HDAC1 (Q13547 whole entry): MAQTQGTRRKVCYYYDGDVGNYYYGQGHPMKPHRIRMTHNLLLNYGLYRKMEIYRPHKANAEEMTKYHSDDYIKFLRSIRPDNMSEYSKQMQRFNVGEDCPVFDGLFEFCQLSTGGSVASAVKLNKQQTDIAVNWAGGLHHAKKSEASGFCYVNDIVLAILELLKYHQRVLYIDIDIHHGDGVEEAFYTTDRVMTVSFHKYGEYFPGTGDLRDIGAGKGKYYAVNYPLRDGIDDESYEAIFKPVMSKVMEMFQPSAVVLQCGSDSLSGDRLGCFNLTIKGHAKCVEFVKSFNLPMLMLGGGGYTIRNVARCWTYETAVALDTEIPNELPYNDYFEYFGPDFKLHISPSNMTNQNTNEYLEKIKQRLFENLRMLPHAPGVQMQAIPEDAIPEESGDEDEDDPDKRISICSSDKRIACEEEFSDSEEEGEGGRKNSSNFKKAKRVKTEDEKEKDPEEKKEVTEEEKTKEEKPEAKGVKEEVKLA

Human HDAC8 = Human HDAC8 (Homo sapiens (Human), UniProt Q9BY41); assay: HDAC8 fluorogenic peptide deacetylation assay; type: biochemical; conditions: human HDAC8, 50 μM substrate, 30° C., 2 h; read-out: IC50 (nM) of enzyme activity HDAC8
Sequence of Human HDAC8 (Q9BY41 whole entry): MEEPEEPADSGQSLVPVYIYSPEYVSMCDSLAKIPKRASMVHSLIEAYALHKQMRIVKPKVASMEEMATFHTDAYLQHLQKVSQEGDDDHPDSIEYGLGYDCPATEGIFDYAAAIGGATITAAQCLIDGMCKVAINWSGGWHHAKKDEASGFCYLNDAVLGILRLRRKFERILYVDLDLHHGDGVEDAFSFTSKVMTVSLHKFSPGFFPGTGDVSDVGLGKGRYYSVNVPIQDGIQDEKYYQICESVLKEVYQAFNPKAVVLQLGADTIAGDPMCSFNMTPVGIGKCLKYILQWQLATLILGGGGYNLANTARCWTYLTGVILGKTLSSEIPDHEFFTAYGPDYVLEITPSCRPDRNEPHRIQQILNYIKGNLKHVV

Human HDAC3/NcoR2 = Human HDAC3/NcoR2 (Homo sapiens (Human), UniProt O15379); assay: HDAC3 fluorogenic peptide deacetylation assay; type: biochemical; conditions: human HDAC3/NcoR2, 50 μM substrate, 30° C., 2 h; read-out: IC50 (nM) of enzyme activity HDAC3
Sequence of Human HDAC3/NcoR2 (O15379 whole entry): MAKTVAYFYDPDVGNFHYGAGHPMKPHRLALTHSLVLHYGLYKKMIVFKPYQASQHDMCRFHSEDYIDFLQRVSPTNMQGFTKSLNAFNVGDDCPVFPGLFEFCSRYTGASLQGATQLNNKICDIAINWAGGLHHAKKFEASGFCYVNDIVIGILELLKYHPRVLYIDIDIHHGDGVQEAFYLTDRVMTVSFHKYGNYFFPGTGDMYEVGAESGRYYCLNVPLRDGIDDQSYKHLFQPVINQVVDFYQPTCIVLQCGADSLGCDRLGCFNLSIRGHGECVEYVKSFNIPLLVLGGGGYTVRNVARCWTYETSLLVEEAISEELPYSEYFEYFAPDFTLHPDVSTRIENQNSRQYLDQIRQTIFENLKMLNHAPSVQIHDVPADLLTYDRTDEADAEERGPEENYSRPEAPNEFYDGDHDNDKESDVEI
Sequence of Human HDAC3/NcoR2 (Q9Y618 395-489 partner): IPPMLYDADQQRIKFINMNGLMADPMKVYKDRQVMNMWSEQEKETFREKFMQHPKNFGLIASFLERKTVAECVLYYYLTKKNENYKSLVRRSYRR

Human HDAC9 = Human HDAC9 (Homo sapiens (Human), UniProt Q9UKV0); assay: HDAC9 fluorogenic peptide deacetylation assay; type: biochemical; conditions: human HDAC9, 50 μM substrate, 30° C., 2 h; read-out: IC50 (nM) of enzyme activity HDAC9
Sequence of Human HDAC9 (Q9UKV0 other isoform, or with tags, fused parts or gaps): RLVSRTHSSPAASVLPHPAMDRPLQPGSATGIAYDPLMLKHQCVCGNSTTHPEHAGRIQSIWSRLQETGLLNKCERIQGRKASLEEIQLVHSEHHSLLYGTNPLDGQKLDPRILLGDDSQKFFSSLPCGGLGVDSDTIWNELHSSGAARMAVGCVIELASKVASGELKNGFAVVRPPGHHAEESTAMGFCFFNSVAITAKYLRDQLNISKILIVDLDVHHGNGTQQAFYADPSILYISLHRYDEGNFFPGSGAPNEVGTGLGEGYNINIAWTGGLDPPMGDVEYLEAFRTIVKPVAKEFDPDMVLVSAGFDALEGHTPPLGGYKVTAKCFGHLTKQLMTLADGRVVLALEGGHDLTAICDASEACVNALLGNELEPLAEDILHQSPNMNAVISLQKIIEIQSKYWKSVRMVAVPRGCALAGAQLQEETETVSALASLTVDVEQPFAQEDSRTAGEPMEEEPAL

## N.N.[Cl][Pt][Cl] [Cisplatin, reference compound]
Calu-6
  IC50: 1610 nM
OVCAR3
  IC50: 11.7 µM
786-O
  IC50: 4.32 µM
LNCaP
  IC50: 8.92 µM
CNE2
  IC50: 11.8 µM
SK-OV-3
  IC50: 4.42 µM
DU145
  IC50: 4.01 µM
NCI-H460
  IC50: 6.93 µM
KB
  IC50: 3.97 µM
SK-MEL-5
  IC50: 2870 nM
PC-3
  IC50: 11.5 µM
K562
  IC50: 13.2 µM
MDA-MB-231
  IC50: 99.8 µM
SW620
  IC50: 84.3 µM
U87MG
  IC50: 7.61 µM
SK-MES-1
  IC50: 5.12 µM
DLD-1
  IC50: 18.3 µM
PANC-1
  IC50: 24.8 µM
BGC823
  IC50: 1290 nM
Bx-PC-3
  IC50: 6.12 µM
SW480
  IC50: 10.8 µM
SK-BR-3
  IC50: 1740 nM
Hep3B
  IC50: 3.96 µM
NCI-N87
  IC50: 8.24 µM
MCF-7
  IC50: 7.75 µM
LoVo
  IC50: 4.65 µM
HT-29
  IC50: 14.9 µM
MCG803
  IC50: 11.4 µM
A375
  IC50: 6.55 µM
NCI-H226
  IC50: 9.5 µM
A549
  IC50: 28.4 µM
RPMI-8226
  IC50: 1060 nM

## Nc1ccccc1NC(=O)c1ccc(CNC(=O)c2[nH]c(-c3ccc(O)cc3)cc2-c2ccoc2)cc1 [Example 37, N-(4-{[(2-aminophenyl)amino)carbonyl]benzyl}-3-(3-furyl)-5-(4-hydroxyphenyl)-1H-pyrrole-2-carboxamide]
Human HDAC6
  IC50: 2890 nM
Human HDAC11
  IC50: 5660 nM
Human HDAC4
  IC50: > 5000 nM
Human HDAC5
  IC50: 8640 nM
Human HDAC2
  IC50: 1840 nM
Human HDAC7
  IC50: > 5000 nM
Human HDAC10
  IC50: 8550 nM
[1]
  IC50: 1080 nM
Human HDAC1
  IC50: 332 nM
Human HDAC8
  IC50: > 5000 nM
Human HDAC3/NcoR2
  IC50: 5830 nM
Human HDAC9
  IC50: > 5000 nM
